Results taken from US11420994B2, “Carbon-monoxide-releasing molecules and therapeutic applications thereof” (GEORGIA STATE UNIVERSITY RESEARCH FOUNDATION, INC., priority 2016, dated 2022).
Read-outs that look alike come from different tables or passages of the source.

Assays:
[1] = MTT cytotoxicity test of mannose-modified reactants
Protocol: The cytotoxicity test, MTT assay, was performed to define the concentration using TPCPD-M (57, 1 mM) and BCN-M (61, 1 mM) (FIG. 4).

TNF-α [2] = assay: LPS-induced accumulation of TNF-α in RAW 264.7 culture supernatant (ELISA), two-component system; type: cell-based, mouse
Protocol: RAW264.7 cell were seeded in 6-well plates and incubated overnight. Cells were then stimulated with LPS (10 mg/mL) for 1 h. TPCPD (1) and BCN (6a) (different concentrations) were added to well after 1 hr LPS treatment (same for all wells). As a control, the product (31) was used at same concentration as the anti-inflammation test to confirm that the suppression of TNF-α is result of CO instead of the reagent (or product) themselves (compounds 1, 6a, and 31). TNF-α secretion in the medium was measured with an eBioscience kit (mouse TNF-α ELISA kit, eBioscience, San Diego, Calif., USA).
TNF-α is a major pro-inflammatory cytokine, mainly secreted from macrophages and dendritic cells. Its production is induced in vitro by stimulation with LPS. The accumulation of TNF-α was assessed by ELISA in the culture supernatant of the macrophage cell line, RAW 264.7 (FIG. 5). The cells were stimulated for 1 h and then co-treated by […] for 24 h. […] A 50% decrease of the LPS-induced accumulation of TNF-α was observed after co-treatment with TPCPD-M and BCN-M at the respective concentration of 1 mM+1 mM.

[3] = CO release kinetics by increase of fluorescence intensity; type: physicochemical
Protocol: Compound 10a was dissolved indifferent solvents including CH2Cl2 (25° C.), CH3CN (25° C.), DMSO (25° C.), DMSO/PBS (10:1, 25° C.), DMSO/PBS (5:1, 25° C.), and DMSO/PBS (5:1, 37° C.) to give a final concentration of around 100 μM, and CO release was monitored by fluorescence intensity at 450 nm. Each experiment was repeated three times independently. The CO release rate (first order reaction rate) in DCM, CH3CN, DMSO, DMSO/PBS (10:1), DMSO/PBS (5:1), and DMSO/PBS (5:1, 37° C.) were different and their individual rate constant was calculated to be 2.3±0.2, 3.6±0.4, 6.6±0.6, 7.7±0.6, 11.0±1.4 and 22.4±3.2 h^−1, respectively. […] The CO release rate increased along with the polarity of the solvent.

[4] = Fluorescence properties of the cycloaddition products; type: physicochemical
[5] = Intramolecular DAR in DMSO/PBS (7.4) at 37° C., time to completion; type: physicochemical
Protocol: A solution of compound 10b in DMSO/PBS (7.4) was incubated at 37° C. for 3 hrs, after which the intramolecular DAR reaction finished. Then the reaction mixture was extracted with ethyl acetate, and the obtained organic layer was dried with anhydrous Na2SO4, filtered and concentrated. Thus obtained pale yellow solid was characterized by ^1H NMR as the intramolecular DAR product. ^1H NMR (400 MHz, CDCl3): δ 9.27 (d, J=7.2 Hz, 1H), 7.88 (d, J=8.0 Hz, 1H), 7.79 (d, J=8.0 Hz, 1H), 7.71 (t, J=7.6 Hz, 1H), 7.61-7.53 (m, 5H), 7.32 (t, J=8.0 Hz, 1H), 7.08 (s, 1H), 7.04 (d, J=7.2 Hz, 1H), 5.37-5.18 (m, 1H), 3.53 (t, J=6.0 Hz, 2H), 3.05 (t, J=6.0 Hz, 2H), 1.32 (d, J=6.8 Hz, 6H).
A solution of compound 10b in DMSO/PBS (7.4) was incubated at 37° C. for 24 hrs, after which the intramolecular DAR reaction was finished. Then the reaction mixture was extracted with ethyl acetate, and the obtained organic layer was dried with anhydrous Na2SO4. Filtered and concentrated, the obtained pale yellow solid was characterized by ^1H NMR as the intramolecular DAR product. ^1H NMR (400 MHz, CDCl3) δ 9.12 (d, J=8.0 Hz, 1H), 7.83 (d, J=8.4 Hz, 1H), 7.73 (d, J=8.4 Hz, 1H), 7.68 (t, J=8.0 Hz, 1H), 7.63-7.54 (m, 3H), 7.36 (d, J=8.0 Hz, 2H), 7.24 (t, J=8.0 Hz, 1H), 6.32 (d, J=8.0 Hz, 1H), 5.29-5.26 (m, 1H), 3.57-3.46 (m, 2H), 3.05-2.94 (m, 2H), 2.12 (s, 3H), 1.33 (d, J=6.8 Hz, 6H). […]

[6] = Determination of CO release rates (fluorescence or UV absorbance); type: physicochemical; conditions: DMSO/PBS (4:1) at 37° C.
Protocol: For CO prodrugs with naphthalene scaffold, the CO release rate is easily done by monitoring the fluorescence intensity of the cyclized product. For the others, the CO release rate was determined by employing the UV absorbance difference between the prodrugs and the cyclized product.

RAW 264.7 cells = assay: Cytotoxicity of CO prodrugs and inactive products (MTT); type: cell-based, mouse; conditions: 24 h incubation
Protocol: The toxicity of compound 10b and product of compound 10b (44b) after CO release were tested on RAW 264.7 cells, which is a mouse macrophage cell line used for anti-inflammation test. Different concentrations of 10b and 44b product were added into the cell culture media (Dulbecco's Modified Eagle's Medium supplemented with 10% heat inactivated fetal bovine serum and 1% penicillin-streptomycin). All samples with different concentrations of 10b or 44b product contained 1% DMSO in the cell culture media. RAW 264.7 cells were seeded in 96-well plate one day before the experiment. The cells were then incubated with the compound for 24 hours at 37° C. with 5% CO2. The cell viability was tested by MTT assay. Basically, after 24 hours of incubation, 0.5 mg/mL MTT (3-(4,5-Dimethylthiazol-2-yl)-2,5-Diphenyltetrazolium Bromide) was added into the cell culture and incubated for 4 hours. Thereafter, the supernatant was removed and 100 μL of DMSO were added into the wells containing cells. After shaking gently for 3 minutes, absorbance at 570 nm was read by plate reader.
(§1) 10a-10d, and 100 with different release rates were chosen to test their inhibitory effect against lipopolysaccharide (LPS) induced TNF-α secretion in RAW 264.7 cells. […] This was followed by the treatment of LPS for another 1 h. Then the cell culture supernatants were subjected to ELISA assay for TNF-α levels.

[7] = CO release kinetics by increase of fluorescence intensity; type: physicochemical; conditions: PBS with 1% DMSO; 1% of DMSO in PBS (pH = 7.4); read-out: t1/2 half-life for CO release (converted)
TNF-α [8] = assay: TNF-α ELISA in LPS treated RAW 264.7 cells pre-treated with CO prodrug; type: cell-based, mouse; conditions: pre-treated 5 h, then LPS 1 h
Protocol: RAW 264.7 cells were seeded in the 48-well plate one day before the experiment.
LPS was used to initialize the inflammatory response in RAW 264.7 cells and trigger the expression of cytokines. RAW 264.7 cells were pre-treated with different concentrations of 10b or 44b product for 5 hours. Thereafter, […] LPS was added with into the cell culture media. For TNF-α test, the cell culture supernatant was collected after 1 hour of LPS treatment. For IL-6 test, the cell culture supernatant was collected after 4 hours of LPS treatment. Cell culture without LPS treatment was used as control.
as §1

[9] = tested on: pulmonary arterial hypertension; conditions: breathing CO gas (e.g., 150 ppm), after 16 weeks; cited from earlier work
[10] = of the cycloaddition products 44a-44f and 100a

With `O=C(NCCOCCOCCOC1OC(CO)C(O)C(O)C1O)OCC1[C@H]2CCC#CCC[C@@H]12` (some centres unmarked) [BCN-M] the cytotoxicity ([1]; 24 h of treatment, within 1 mM) was “none of the compounds led to any cytotoxicity”, the “decrease of the LPS-induced accumulation of TNF-α” value (TNF-α [2]; co-treatment with TPCPD-M and BCN-M 1 mM+1 mM, 24 h) was 50% and the “inhibition of the LPS-induced accumulation of TNF-α” value (TNF-α [2]; tested separately) was “do not lead to any inhibition”.

For `NCC(=O)O.[C-]#[O+].[C-]#[O+].[C-]#[O+].[Cl][Ru]` [CORM3, reference compound], the “decrease in cell viability” value ([1]; 1 mM) was 30%.

With `C#CCN(C)C(=O)C1=C2C(=C(c3ccccc3)C1=O)c1cccc3cccc2c13` [Compound 10a] the “k CO release rate” value ([3]; CH2Cl2 at room temperature (25° C.)) was 2.3 ± 0.2 h⁻¹, the “CO release rate constant (first order)” value ([3]; CH3CN (25° C.)) was 3.6 ± 0.4 h⁻¹ and the “CO release rate constant (first order)” value ([3]; DMSO (25° C.)) was 6.6 ± 0.6 h⁻¹. For the same molecule, the “CO release rate constant (first order)” value ([3]; DMSO/PBS (5:1, 25° C.)) was 11.0 ± 1.4 h⁻¹, the “CO release rate constant (first order)” value ([3]; DMSO/PBS (10:1, 25° C.)) was 7.7 ± 0.6 h⁻¹ and the “k CO release rate” value ([3]; DMSO/PBS (pH = 7.4) 5:1 at 37° C.) was 22.4 ± 3.2 h⁻¹. For the same molecule, the λem emission wavelength [4, 10] was 450 nm, the λex excitation wavelength [4, 10] was 371 nm and the Φ quantum yield ([4]; of the cycloaddition products 44a-44f and 100a in MeOH, quinine sulfate as the standard) was 0.21. For the same molecule, the “incubation time after which the intramolecular DAR reaction was finished” value [5] was 5 min.

In the case of `C#CCOc1ccccc1C1=C2C(=C(C(=O)N3CCOCC3)C1=O)c1cccc3cccc2c13` [Compound 51], the “K CO release” value [6] is reported as 0.31 ± 0.003 h⁻¹ and the “incubation time after which the intramolecular DAR reaction was finished” value [5] is reported as 960 min.

With `C#CCCN(CCOC1OC(CO)C(O)C(O)C1O)C(=O)C1=C2C(=C(c3ccccc3)C1=O)c1cccc3cccc2c13` (centres unmarked) [Compound 100] the half-life ([3]; DMSO/PBS 5:1, DMSO/PBS (pH = 7.4) 5:1 at 37° C., read-out: t1/2 half-life for CO release (converted)) was 2.1 h, the “effect on cell viability” value (RAW 264.7 cells) was “did not show any effect on cell viability at up to 50 μM” and the “K CO release” value [6] was 0.33 ± 0.01 h⁻¹. The half-life [7] was 0.18 h.

With `O=C1c2c(cc(-c3ccccc3)c3c2-c2cccc4cccc-3c24)CCN1CCOC1OC(CO)C(O)C(O)C1O` (centres unmarked) [Compound 100a] the “LPS-induced TNF-α expression / secretion” value (TNF-α [8]) was “dose-dependently inhibited” and the “effect on cell viability” value (RAW 264.7 cells) was “did not show any effect on cell viability at up to 50 μM”.

For carbon monoxide [CO], the “decrease of pulmonary vascular resistance compared to the pre-therapy value” [9] is given as 20%.
